Test results: ChEMBL document CHEMBL1201862, “PubChem BioAssay data set” (2004)
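Five concentrations, 48 hours, 96-well plates. GI50: concentration for 50% inhibition of growth.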 Activity calls are given as the source filed them. No stated cut-off is given here; in the data, active = GI50 up to about 1.1 µM and inactive = higher.

How the values were obtained:
Experiment in all cases: inhibition of tumour cell growth, NCI panel, 48 h
Malme-3M = test system: Malme-3M
SW-620 = test system: SW-620
HL-60 = test system: HL-60
OVCAR-5 = test system: OVCAR-5
NCI-H226 = test system: NCI-H226
PC-3 = test system: PC-3
M14 = test system: M14
OVCAR-4 = test system: OVCAR-4
SR = test system: SR
SK-MEL-2 = test system: SK-MEL-2
EKVX = test system: EKVX
DU-145 = test system: DU-145
HCC 2998 = test system: HCC 2998
MCF7 = test system: MCF7
NCI-H460 = test system: NCI-H460
COLO 205 = test system: COLO 205
SK-MEL-5 = test system: SK-MEL-5
OVCAR-3 = test system: OVCAR-3
KM12 = test system: KM12

Compound	GI50 (Malme-3M)	GI50 (SW-620)	GI50 (HL-60)	GI50 (OVCAR-5)	GI50 (NCI-H226)	GI50 (PC-3)	GI50 (M14)	GI50 (OVCAR-4)	GI50 (SR)	GI50 (SK-MEL-2)	GI50 (EKVX)	GI50 (DU-145)	GI50 (HCC 2998)	GI50 (MCF7)	GI50 (NCI-H460)	GI50 (COLO 205)	GI50 (SK-MEL-5)	GI50 (OVCAR-3)	GI50 (KM12)
C[C@@H](NC(=O)Nc1cccc(C(=O)Nc2cc(C(C)(C)C)ccc2C(=O)O)n1)c1ccccc1	46.5 µM (inactive)	39 µM (inactive)	45.3 µM (inactive)	33.4 µM (inactive)	38.3 µM (inactive)	25.1 µM (inactive)	31 µM (inactive)	50.1 µM (inactive)	28.4 µM (inactive)	18.1 µM (inactive)	52.5 µM (inactive)	40.2 µM (inactive)	50.8 µM (inactive)	16.4 µM (inactive)	52.1 µM (inactive)	27.3 µM (inactive)	30.1 µM (inactive)	21.4 µM (inactive)	55.1 µM (inactive)
COc1ccc(C[N+](C)(C)N)cc1OC	> 10 µM (inactive)	> 10 µM (inactive)	> 10 µM (inactive)	> 10 µM (inactive)	> 100 µM (inactive)	> 10 µM (inactive)	> 10 µM (inactive)	> 10 µM (inactive)	> 10 µM (inactive)	> 100 µM (inactive)	> 100 µM (inactive)	> 10 µM (inactive)	> 10 µM (inactive)	> 10 µM (inactive)	> 100 µM (inactive)	> 10 µM (inactive)	> 10 µM (inactive)	> 10 µM (inactive)	> 10 µM (inactive)
CN1C(=O)C23CC4=CC=CC(O)C4N2C(=O)C1(CO)SS3 (stereo not drawn)	0.223 µM (active)	0.237 µM (active)	0.0223 µM (active)	0.0526 µM (active)	0.0891 µM (active)	0.167 µM (active)	0.0506 µM (active)	0.223 µM (active)	0.0291 µM (active)	0.22 µM (active)	0.368 µM (active)	0.157 µM (active)	0.155 µM (active)	0.16 µM (active)	0.0948 µM (active)	0.0524 µM (active)	0.173 µM (active)	0.199 µM (active)	0.0991 µM (active)
Cn1c(=O)n2c(=O)n(C)c(=O)n2c1=O	> 100 µM (inactive)	> 100 µM (inactive)	> 100 µM (inactive)	> 100 µM (inactive)	> 100 µM (inactive)	> 100 µM (inactive)	> 100 µM (inactive)	> 100 µM (inactive)	> 100 µM (inactive)	> 100 µM (inactive)	> 100 µM (inactive)	> 100 µM (inactive)	> 100 µM (inactive)	> 100 µM (inactive)	> 100 µM (inactive)	> 100 µM (inactive)	> 100 µM (inactive)	> 100 µM (inactive)	> 100 µM (inactive)
COc1ccccc1Nc1nc(N)nc(N)c1N	> 100 µM (inactive)	27.2 µM (inactive)	29.1 µM (inactive)	> 100 µM (inactive)	> 100 µM (inactive)	90.8 µM (inactive)	> 100 µM (inactive)	> 100 µM (inactive)	23.7 µM (inactive)	> 100 µM (inactive)	> 100 µM (inactive)	> 100 µM (inactive)	> 100 µM (inactive)	29.2 µM (inactive)	38.5 µM (inactive)	48.2 µM (inactive)	54.1 µM (inactive)	43.9 µM (inactive)	> 100 µM (inactive)
CC/C(=N/O)c1ccc(Br)s1	> 100 µM (inactive)	> 100 µM (inactive)	28.6 µM (inactive)	> 100 µM (inactive)	> 100 µM (inactive)	> 100 µM (inactive)	> 100 µM (inactive)	> 100 µM (inactive)	40.3 µM (inactive)	> 100 µM (inactive)	5.61 µM (inactive)	> 100 µM (inactive)	> 100 µM (inactive)	> 100 µM (inactive)	> 100 µM (inactive)	> 100 µM (inactive)	> 100 µM (inactive)	> 100 µM (inactive)	> 100 µM (inactive)
CN1CCN(CCCCN2c3ccccc3Sc3ccc(N=[N+]=[N-])cc32)CC1	2.43 µM (inactive)	2.68 µM (inactive)	1.95 µM (inactive)	9.55 µM (inactive)	14.3 µM (inactive)	4.65 µM (inactive)	2.05 µM (inactive)	10.2 µM (inactive)	2.58 µM (inactive)	3.99 µM (inactive)	13.6 µM (inactive)	12.9 µM (inactive)	3.74 µM (inactive)	4.17 µM (inactive)	6.01 µM (inactive)	1.86 µM (inactive)	2.26 µM (inactive)	8.07 µM (inactive)	6.22 µM (inactive)
